The values that follow come from patent US20180369186A1, “METHOD FOR MODULATING AUTOPHAGY AND APPLICATIONS THEREOF” (JAWAHARLAL NEHRU CENTRE FOR ADVANCED SCIENTIFIC RESEARCH, priority 2015, published 2018).

The subject of assay [1] is SH-SY5Y cells overexpressing EGFP-α-synuclein. Briefly: Cell viability of SH-SY5Y cells overexpressing α-synuclein (CellTitre-Glo). The format is cell-based, human. The method, then: SH-SY5Y cells are seeded on a 96 well plate and transfected with GFP-SNCA only and/or is cotransfected with shRNA GSK3B and GFP-SNCA. To cells, the drugs were added (24 h) after 48 h of transfection. Then, the cell viability was measured using the CellTitre-Glo® (Promega) and luminescence was measured using Varioskan Flash (Thermo Scientific).
SH-SY5Y cells are seeded onto tissue culture treated 96 well plate and then transfected with EGFP-α-synuclein only and/or co-transfected with siRNA. To cells, appropriate drugs are added (24 h) after 48 h of transfection. Using luminescence-based CellTitre-Glo® (Promega) kit, the cell viability is assayed using automated microtitre plate reader Varioskan Flash (Thermo Scientific) […].

Assay [2] relates to α-synuclein toxicity. Briefly: S. cerevisiae α-synuclein toxicity model, growth assay. The format is cell-based. Conditions: 50 μM. The method, then: To screen small molecule library LOPAC1280 in S. cerevisiae SNCA toxicity model, working plates containing 50 μM drugs in 1.5% DMSO (190 compounds/plate) are prepared in a 384 well format. WT SNCA-GFP with or without small molecules and untreated WT GFP are grown under optimized conditions (80 μl, 30° C. and 420 rpm) for 36 h in a plate reader (Varioskan Flash, Thermo Scientific) in duplicates with automatic absorbance (A600) recording every 20 min. Growth curves of untreated WT GFP and WT SNCA-GFP strains are plotted and mid to late exponential phase time point of untreated WT GFP strain is chosen as reference for data analysis. Its corresponding time point of untreated and drug treated WT SNCA-GFP strains are plotted separately in a box plot. Small molecules that rescued the growth lag by ≥3 SD units of untreated WT SNCA-GFP strain are considered as ‘Hits’.
Growth assays: In a 384 well plate, appropriate yeast strains are seeded (A600˜0.07) with and without drugs and incubated (80 μl, 30° C. and 420 rpm) in a multiplate reader (Varioskan Flash, Thermo Scientific) for 48 h with automatic absorbance (A600) recording every 20 min. Growth curves are plotted and analyzed using GraphPad Prism.
Induction of α-synuclein-EGFP aggregates: To induce α-synuclein-EGFP aggregates, the corresponding strains are inoculated in SD-Ura medium, Secondary culture is inoculated from primary inoculum and incubated till A600 reaches 0.8/ml. Cells are washed twice with sterile water and aggregates are induced by adding SG-Ura for 12-16 h.
To screen small molecule library LOPAC^1280 in S. cerevisiae α-synuclein toxicity model, working plates containing 50 μM drugs (small molecule) in 1.5% DMSO (190 compounds/plate) are prepared in a 384 well format. WT α-synuclein-EGFP with and without small molecules and untreated WT EGFP are grown under optimized conditions (80 μl, 30° C. and 420 rpm) for 36 h in a plate reader (Varioskan Flash, Thermo Scientific) in duplicates with automatic absorbance (A600) recording every 20 min.
Growth curves of untreated WT EGFP and WI α-synuclein-EGFP strains are plotted and mid to late exponential phase time point of untreated WT EGFP strain is chosen as reference for data analysis. Its corresponding time point of untreated and drug treated WT α-synuclein-EGFP strains are plotted separately in a box plot.
Appropriate yeast strains are seeded (A600 ˜0.07) with or without drugs in a 384-well plate and incubated (420 rpm, 30° C. and 80 μl) in a multiplate reader (Varioskan Flash, Thermo Scientific) for 48 h that records absorbance (A600) automatically for every 20 min. Growth curves are plotted using GraphPad Prism.

For assay [3], the system named is HeLa cells (autophagosomes and autolysosomes). Briefly: Tandem RFP-GFP-LC3B (traffic light) assay in HeLa cells. The format is cell-based, human. The method, then: Transfection is done on a 60 mm dish with HeLa cells at 60-70% confluency. Cells were transfected with tandem RFP-GFP-MAP1LC3B construct (Addgene plasmid #21074) using 5 μl of Lipofectamine 2000 (11668-019, Invitrogen) and 2.5 μg of DNA (2:1 ratio) diluted in 100 μl of OPTI-MEM (31985-070, Invitrogen) separately. 72 hours after transfection cells are either left untreated or treatment with various concentrations of Bay11-7082 ZPCK is done for 2 hours. Starvation is induced by treating cells with Earle's balanced salt solution (EBBS). After treatment, cells are fixed in 4% paraformaldehyde and permeabilized using 0.25% Triton X-100, The coverslip is mounted with […] antifade reagent (H-1000, Vector laboratories). Imaging for HeLa cells is carried out using Delta vision microscope (Olympus 60×/1.4, Plan ApoN, excitation and emission filter Cy5, FITC and TRITC, polychroic Quad).
For tandem RFP-EGFP-LC3 assay, sub-confluent cells are seeded in 60 mm dishes, transfected with ptf LC3 construct and allowed to express for 24 h. Later, cells are trypsinized, reseeded (10^5 cells) and allowed to attach on cover slips in a 12 well plate.
For mammalian cell microscopy, after 2 h of treatment, coverslips are fixed using 4% paraformaldehyde (PFA) (Sigma) and permeabilized using Triton X-100 (0.2%, HiMedia). Coverslips are mounted using antifade, Vectashield (Vector laboratories). For antibody staining, coverslips are blocked in 5% BSA for 1 h, incubated in primary antibody overnight and subsequent probing with fluorescent conjugated antibody. Coverslips are mounted using antifade, Vectashield (Vector laboratories).
Images are acquired using DeltaVisionElitewidefield microscope (API, GE) with following filters: DAPI (390/18 and 435/48), FITC (490/20 and 529/38), TRITC (542/27 and 594/45) and Cy5 (632/22 and 676/34). Images are processed using DV SoftWoRX software. Autophagosome (yellow) and autolysosome (red) are counted using Cell Counter plug-in in ImageJ software (NIH) and graphically represented as fold difference versus untreated (FIG. 3E).
Sub-confluent HeLa and/or SH-SY5Y cells are seeded into 60 mm cell culture dishes, then transfected with ptf LC3 construct and/or siRNA and allowed to express for 48 h. Cells are trypsinized, seeded again on poly-D-lysine coated cover slips in a 12 or 24 well plates and allowed to attach. After appropriate treatments, the coverslips containing cells are processed for imaging. For immunofluorescent antibody staining, the cover slips are incubated in primary antibody at 4° C. for overnight followed by secondary antibody incubation at room temperature.
For imaging the mammalian cells, after appropriate treatments, coverslips containing cells are fixed using 4% paraformaldehyde (PFA) (Sigma) and then permeabilized using Triton X-100 (0.2%, HiMedia). On slide, coverslips are mounted using antifade, Vectashield mounting medium (Vector laboratories). For antibody staining, coverslips are blocked using 5% BSA for 1 h at room temperature, then incubated with primary antibody at 4° C., overnight and then subsequently probed with corresponding fluorescent dye conjugated secondary antibody.

Setting [4] is: HeLa, 2 h, 2.5 μM Bay11, 25 μM ZPCK.
The mark [5] stands for this setting: HeLa, ERRα Flag transfected 48 h, 5 μM, 2 h.

With `O=C1Nc2cc(Br)ccc2/C1=C1/Nc2ccccc2/C1=N\O` [6-Bio, (2′Z,3′E)-6-Bromoindirubin-3′-oxime], the “cell viability of SNCA over expressed SH-SY5Y cells” value in assay [1] (SNCA over expressed for 72 h) is recorded as “significantly increased”. In addition, the “cytoprotection when GSK3B expression is silenced” value in assay [1] (shRNA GSK3B silenced, SNCA over expressed) is listed as “marginal cytoprotection”. Also, the “rescue of growth lag due to α-synuclein toxicity” value in assay [2] (WT α-synuclein-EGFP strain) is recorded as “rescues the growth lag”. Moreover, in assay [2] (atg1Δ, atg5Δ, atg8Δ, atg11Δ and atg15Δ), the “rescue of growth lag in autophagy mutants expressing α-synuclein” value was “fails to rescue growth lag”. Also, the “fusion between autophagosomes and lysosomes at 16° C.” value in assay [3] (HeLa, 16° C. (endocytosis reduced), control vs treated) is given as roughly 8 fold. Further, the “fusion between autophagosomes and lysosomes at 37° C.” value in assay [3] (HeLa, 37° C., control vs treated) is given as roughly 10 fold. In addition, the “autolysosomes in GSK3B silenced cells vs only treated cells” value in assay [3] (shRNA GSK3B silenced cells) is reported as “significantly reduced”.

With `Cc1ccc(S(=O)(=O)/C=C/C#N)cc1` [Bay11, 3-[(4-methylphenyl)sulfonyl]-(2E)-propenenitrile], in assay [3] (setting [4]), the “number of autolysosomes (mRFP+/GFP− puncta)” value is on record as “decreased” and the “number of autophagosomes (mRFP+/GFP+ puncta)” value is on record as “decreased the number of autophagosomes”. The “step of action relative to Bafilomycin A1 (BFA)” value in assay [3] (HeLa, with Bafilomycin A1 (400 nM)) was “step prior to BFA action”.

In the case of `COc1cc(C=C(C#N)C(=O)Nc2nnc(C(F)(F)F)s2)ccc1OCc1ccc(C(F)(F)F)cc1C(F)(F)F` [XCT 790, 3-[4-(2,4-Bis-trifluoromethylbenzyloxy)-3-methoxyphenyl]-2-cyano-N-(5-trifluoromethyl-1,3,4-thiadiazol-2-yl)acrylamide], the “increase in cell viability, untreated vs treated” value in assay [1] (α-syn over expressed cells, 5 μM) is recorded as roughly 4 fold. Besides, the “cell viability, XCT 790 vs XCT 790+3-MA” value in assay [1] (α-syn over expressed cells, with 3-MA) is on record as roughly 4 fold. Besides, in assay [2] (WT α-syn cells), the “rescue of growth lag, treated vs untreated” value was roughly 3.2 fold. In assay [3] (HeLa, 5 μM, 2 h), the “autolysosome numbers, fold vs control” value was roughly 2 fold and the “autophagosomes, fold vs control” value is on record as roughly 5 fold. In assay [3] (setting [5]), the “less autolysosomes in ERRα over expressed cells, vs untreated” value is roughly 2 fold and the “more autophagosomes in ERRα over expressed cells, vs untreated” value is roughly 2 fold.
